Results from PubChem BioAssay AID1919003 (Molecular Pharmacology Branch, DTP, NCI, 2023).
pIC50: −log10 of the molar value.

Test system: 786-0 complex spheroids with HUVEC/MSC, growth % test/control
Test: Anticancer human tumor 786-0 cell line growth inhibition [AhR];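 also: compound exposure lasted seven days before the read-out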
Conditions: for pIC50: curve of first compound; for viability, T/C: stronger effect = lower value
Summary of the method: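 Complex tumor spheroids co-cultured with HUVEC and human MSC stroma; AhR antagonists tested in combination with standard-of-care and investigational agents. Top concentration at or near clinical Cmax (else 10 microM), half-log dilutions; growth expressed as percent test/control.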

[1] = second compound 0.1 µM, first compound 0.0316 µM
[2] = second compound 0.1 µM, first compound 0.1 µM
[3] = second compound 0.1 µM, first compound 0.316 µM
[4] = second compound 0.1 µM, first compound 1 µM
[5] = second compound 0.1 µM, first compound 3.16 µM
[6] = second compound 0.1 µM, first compound 10 µM
[7] = second compound 0.316 µM, first compound 0.0316 µM
[8] = second compound 0.316 µM, first compound 0.1 µM
[9] = second compound 0.316 µM, first compound 0.316 µM
[10] = second compound 0.316 µM, first compound 1 µM
[11] = second compound 0.316 µM, first compound 3.16 µM
[12] = second compound 0.316 µM, first compound 10 µM
[13] = second compound 1 µM, first compound 0.0316 µM
[14] = second compound 1 µM, first compound 0.1 µM
[15] = second compound 1 µM, first compound 0.316 µM
[16] = second compound 1 µM, first compound 1 µM
[17] = second compound 1 µM, first compound 3.16 µM
[18] = second compound 1 µM, first compound 10 µM
[19] = second compound 3.16 µM, first compound 0.0316 µM
[20] = second compound 3.16 µM, first compound 0.1 µM
[21] = second compound 3.16 µM, first compound 0.316 µM
[22] = second compound 3.16 µM, first compound 1 µM
[23] = second compound 3.16 µM, first compound 3.16 µM
[24] = second compound 3.16 µM, first compound 10 µM
[25] = second compound 10 µM, first compound 0.0316 µM
[26] = second compound 10 µM, first compound 0.1 µM
[27] = second compound 10 µM, first compound 0.316 µM
[28] = second compound 10 µM, first compound 1 µM
[29] = second compound 10 µM, first compound 3.16 µM
[30] = second compound 10 µM, first compound 10 µM

SMILES | pIC50 (second compound 0.1 µM) | pIC50 (second compound 0.316 µM) | pIC50 (second compound 1 µM) | pIC50 (second compound 3.16 µM) | pIC50 (second compound 10 µM) | viability, T/C [1] | viability, T/C [2] | viability, T/C [3] | viability, T/C [4] | viability, T/C [5] | viability, T/C [6] | viability, T/C [7] | viability, T/C [8] | viability, T/C [9] | viability, T/C [10] | viability, T/C [11] | viability, T/C [12] | viability, T/C [13] | viability, T/C [14] | viability, T/C [15] | also measured
NS(=O)(=O)OCC1CC(n2ccc3c(NC4CCc5ccccc54)ncnc32)CC1O (stereo not given) + Cc1ccccc1N=Nc1ccc(NC(=O)c2ccnn2C)c(C)c1 | 6.25 | 6.19 | 6.30 | 6.36 | 6.43 | 90% | 78.6% | 65.5% | 37% | 8.68% | 5.47% | 87.3% | 69.5% | 68.1% | 42.2% | 10.6% | 6.57% | 88% | 68% | 63.2% | viability, T/C [16]: 37.5%; viability, T/C [17]: 9.47%; viability, T/C [18]: 5.05%; viability, T/C [19]: 73.8%; viability, T/C [20]: 65%; viability, T/C [21]: 59.4%; viability, T/C [22]: 29.1%; viability, T/C [23]: 9.11%; viability, T/C [24]: 4.17%; viability, T/C [25]: 76.1%; viability, T/C [26]: 69.5%; viability, T/C [27]: 54.3%; viability, T/C [28]: 27.4%; viability, T/C [29]: 11.3%; viability, T/C [30]: 6.68%
CC1(C)CCC(CN2CCN(c3ccc(C(=O)NS(=O)(=O)c4ccc(NCC5CCOCC5)c([N+](=O)[O-])c4)c(Oc4cnc5[nH]ccc5c4)c3)CC2)=C(c2ccc(Cl)cc2)C1 + Cc1cncc(-c2nc(NCCc3c[nH]c4ccccc34)c3ncn(C(C)C)c3n2)c1 | < 5.00 | < 5.00 | < 5.00 | < 5.00 | > 7.50 | 107% | 123% | 117% | 109% | 113% | 93.3% | 117% | 118% | 119% | 129% | 102% | 93.8% | 118% | 105% | 109% | viability, T/C [16]: 103%; viability, T/C [17]: 102%; viability, T/C [18]: 97.3%; viability, T/C [19]: 65.4%; viability, T/C [20]: 71.9%; viability, T/C [21]: 74.4%; viability, T/C [22]: 76.8%; viability, T/C [23]: 67.4%; viability, T/C [24]: 70.8%; viability, T/C [25]: 5.05%; viability, T/C [26]: 3.29%; viability, T/C [27]: 6.81%; viability, T/C [28]: 6.55%; viability, T/C [29]: 6.02%; viability, T/C [30]: 23.1%
